# Laboratory results taken from ChEMBL document CHEMBL1123971, “Synthesis, platelet aggregation inhibitory activity, and in vivo antithrombotic activity of new 1,4-dihydropyridines” (J Med Chem, 1988).
# Several values for one entry are separate records, joined by “and”; a condition that tells them apart may be missing. Equal values may be shown once.
# Key:
# Format in all cases: functional
# Mus musculus [1] = species: Mus musculus; experiment: Dose required to protect 50% of tested mice against experimental antithrombosis.
# Mus musculus [2] = species: Mus musculus; experiment: Effective dose of the compound required to protect […] tested mice against experimental antithrombosis
# Oryctolagus cuniculus [3] = species: Oryctolagus cuniculus; experiment: Effect on 35 mM K+-induced contraction on rabbit aorta at a dose of 10e-7 mol/L
# Oryctolagus cuniculus [4] = species: Oryctolagus cuniculus; experiment: Effect on 35 mM K+-induced contraction on rabbit aorta at a dose of 10e-9 mol/L
# Oryctolagus cuniculus [5] = species: Oryctolagus cuniculus; experiment: Effect on 35 mM K+-induced contraction on rabbit aorta at a dose of 3*10e-8 mol/L
# Oryctolagus cuniculus [6] = species: Oryctolagus cuniculus; experiment: Effect on 35 mM K+-induced contraction on rabbit aorta at a dose of 3*10e-9 mol/L
# Oryctolagus cuniculus [7] = species: Oryctolagus cuniculus; experiment: Effect on 35 mM K+-induced contraction on rabbit aorta at a dose of 10e-8 mol/L
# Cavia porcellus [8] = species: Cavia porcellus; experiment: Effect on guinea pig artia (beats/min), at the a dose of 0 M
# Cavia porcellus [9] = species: Cavia porcellus; experiment: Effect on guinea pig artia (beats/min), at the a dose of 10e-6 M
# Cavia porcellus [10] = species: Cavia porcellus; experiment: Effect on guinea pig artia (beats/min), at the a dose of 10e-7 M
# Cavia porcellus [11] = species: Cavia porcellus; experiment: Effect on guinea pig artia (beats/min), at the a dose of 10e-9 M
# Cavia porcellus [12] = species: Cavia porcellus; experiment: Effect on guinea pig artia (beats/min), at the a dose of 10e-8 M
smiles,measurement,setting,value
CCCCC1C(C(=O)OCCN2C(=O)c3ccccc3S2(=O)=O)=C(C)N=C(C)/C1=C(/O)OC (stereo not given),ED50,Mus musculus [1],78.4 µmol/kg and 37.3 mg/kg
CO/C(O)=C1\C(C)=NC(C)=C(C(=O)OCN2C(=O)c3ccccc3S2(=O)=O)C1C (stereo not given),ED50,Mus musculus [1],> 220 µmol/kg and > 100 mg/kg
CO/C(O)=C1\C(C)=NC(C)=C(C(=O)OCCN2C(=O)c3ccccc3S2(=O)=O)C1C (stereo not given),ED50,Mus musculus [1],138 µmol/kg and 59.9 mg/kg
CC1=NC(C)=C(C(=O)OCCNC(=O)c2ccccc2O)C(C)/C1=C(\O)OCCN1C(=O)c2ccccc2S1(=O)=O (stereo not given),ED50,Mus musculus [1],51.4 µmol/kg and 30 mg/kg
CCO/C(O)=C1\C(C)=NC(C)=C(C(=O)OCN2C(=O)c3ccccc3S2(=O)=O)C1C (stereo not given),ED50,Mus musculus [1],134 µmol/kg and 58.3 mg/kg
CC(=O)Oc1ccccc1C(=O)O [ASPIRIN],ED30,Mus musculus [2],166.66 µM/kg
same,ED30,"Mus musculus [2]; Mus musculus, read-out: ED30",30 mg/kg
OCCN(CCO)c1nc(N2CCCCC2)c2nc(N(CCO)CCO)nc(N3CCCCC3)c2n1 [DIPYRIDAMOLE],ED50,Mus musculus [1],143 µmol/kg and 72 mg/kg
COC(=O)C1=C(C)NC(C)=C(C(=O)OC)C1c1ccccc1[N+](=O)[O-] [NIFEDIPINE],ED50,Mus musculus [1],6.93 µmol/kg and 2.4 mg/kg
same,Inhibition,Oryctolagus cuniculus [3],100%
same,Inhibition,Oryctolagus cuniculus [4],18.28%
same,Inhibition,Oryctolagus cuniculus [5],88.35%
same,Inhibition,Oryctolagus cuniculus [6],41.73%
same,Inhibition,Oryctolagus cuniculus [7],73.66%
CCOC(=O)C1=C(C)NC(C)=C(C(=O)OC)C1c1cccc([N+](=O)[O-])c1 (stereo not given) [NITRENDIPINE],Beats/min,Cavia porcellus [8],190
same,Control,Cavia porcellus [8],100%
same,Beats/min,Cavia porcellus [9],153
same,Control,Cavia porcellus [9],81%
same,Beats/min,Cavia porcellus [10],179
same,Control,Cavia porcellus [10],94%
same,Beats/min,Cavia porcellus [11],190
same,Control,Cavia porcellus [11],100%
same,Beats/min,Cavia porcellus [12],185
same,Control,Cavia porcellus [12],97.5%
Clc1ccccc1CN1CCc2sccc2C1 [TICLOPIDINE],ED50,Mus musculus [1],152 µmol/kg and 40 mg/kg
